# Assays:
# S. aureus strain PS80 = experiment: Mouse model of S. aureus surgical wound infection; format: in vivo, C57BL6 mice
# Description: Bacterial strains. S. aureus strain PS80 (serotype 8) was obtained from the American Type Culture collection (#27700) and is a potent inducer of intraabdominal abscess formation. S. aureus COL is a methicillin resistant strain that produces a serotype 5 capsule. Staphylococci were cultivated for 24 h at 37° C. on Columbia agar (Difco Laboratories, Detroit, Mich.) supplemented with 2% NaCl.
# Mouse model of S. aureus wound infection. Mice (C57BL6, male, 6-8 wk old) were obtained from Jackson Laboratories (Bar Harbor, Me.). Groups of mice (N=4/group/experiment) were anesthetized with 100 mg/kg ketamine and 10 mg/kg xylazine, their right thighs were shaved, and the surgical area was disinfected with iodine and 70% ethanol. An incision was made in the skin to expose the thigh muscle, and a 1-cm incision was made with a scalpel into the thigh muscle to the depth of the bone. The muscle was then closed with one 4-0 silk suture, and 10 μl of a S. aureus suspension ranging in dose from 10^2 to 10^4 CFU was introduced into the incision under the suture. The skin was closed with four additional Prolene sutures. The mice were euthanized at 3 days post-surgery. The wounded muscle tissue was excised, weighed (˜0.08 g), and homogenized in 1 ml of tryptic soy broth. Serial dilutions of the homogenates were plated in duplicate and results were expressed as CFU/g tissue. Peptides were administered to animals in two ways. For most experiments, HABPs were solubilized in PBS and administered with a pipet into the wound in a 10 μl volume following challenge with bacteria. A 100 μg dose was used for most experiments. For therapeutic studies, peptide was administered via a 1 ml tuberculin syringe fitted with a 25 gauge needle in a 0.25 ml volume injected into the thigh muscle containing the wound distal from the incision site.
# Gross pathology and histologic analysis of host response. […] Histological examination of these wounds confirmed these findings. Muscle tissue was harvested from mice at designated intervals post-surgery, fixed in 10% buffered formalin, and mounted in paraffin; 5 to 6-μm sections were cut and stained with hematoxylin and eosin for microscopic examination. […] The cellular infiltrate was primarily comprised of PMNs and fibrin.
# Statistical analyses. All animal experiments were performed at least two times and the data pooled. Comparison of S. aureus CFU/g tissue was made by the Welch modification of the unpaired Student t test (InStat, GraphPad Software, San Diego, Calif.).
# leukocyte adhesion to HA = settings: cited from earlier work
# S. aureus PS80 = experiment: Modified NCCLS macrodilution broth method, antimicrobial activity; format: cell-based, Staphylococcus aureus; settings: 1, 10 and 100 ug/mL; quantitative cultures at 4, 8, 24 h; vs controls without HABPs
# Description: The antimicrobial activity of HABP35 and HABP53 was determined using a modified National Committee for Clinical Laboratory Standards (NCCLS) macrodilution broth method. S. aureus PS80 was grown overnight on tryptic soy agar plates containing 5% sheep blood. Colonies were suspended in sterile saline and dilutions made to achieve a final concentration of 5×10^5 CFU/ml in each tube containing 5 ml of Mueller-Hinton and BP35 or 53. The HABPs were tested at 1, 10, and 100 ug/mL concentrations. Once inoculated, the tubes were incubated in ambient air at 37° C. and bacterial concentration determined at 4, 8, and 24 hours. Modification of testing parameters included the 10 fold dilution of the HABPs and the determination of bacterial counts at 4, 8 and 24 hours rather than the visual determination of growth or inhibition.
# contact hypersensitivity = settings: mice; cited from earlier work
sequence,measurement,setting,value
GAHWQFNALTVRGGGS [HABP52],bacterial burden at the wound site compared with PBS,"S. aureus strain PS80; 100 μg into wound at time of challenge with 10^2 CFU, 3 days later",significant decrease
same,log reduction in bacterial numbers vs PBS,"S. aureus strain PS80; challenge with 10^3 CFU, 3 days",~3 log
same,leukocyte adhesion to HA,leukocyte adhesion to HA,inhibit leukocyte adhesion to HA
same,growth of S. aureus,S. aureus PS80,not inhibited
same,contact hypersensitivity responses,contact hypersensitivity,inhibits contact hypersensitivity responses

# — patent publication US8044022B2, “Hyaluronic acid binding peptides enhance host defense against pathogenic bacteria” (priority 2005, dated 2011)
